# Assay results as given in ChEMBL document CHEMBL4130462, “Natural isoflavone biochanin A as a template for the design of new and potent 3-phenylquinolone efflux inhibitors against Mycobacterium avium” (Eur J Med Chem, 2017).
# Tests used:
# Mycobacterium avium [1] = details: 104 mc'2 3
# Mycobacterium avium [2] = details: isolate MAV4
# [3] = tested on: Mycobacterium avium subsp. avium ATCC 25291
# Mycobacterium avium [4] = details: 104
# Mycobacterium avium [5] = details: isolate MAV4; remark: listed apart in the source
# Mycobacterium avium [6] = details: isolate MAV3
# Mycobacterium avium [7] = details: isolate MAV4; remark: listed apart in the source
# Description: Inhibition of multidrug resistance efflux pump in Mycobacterium avium isolate MAV4 assessed as potentiation of clarithromycin -induced antibacterial activity by measuring clarithromycin MIC at 1/2 MIC incubated for 3 days by MTT assay
# Mycobacterium avium [8] = details: isolate MAV2
# Mycobacterium avium [9] = test: Antimycobacterial activity against Mycobacterium avium isolate MAV2 assessed as reduction in bacterial viability incubated for 3 days by MTT assay; assay type: organism-based; details: 72 h
# Mycobacterium avium [10] = details: 104; remark: listed apart in the source
# Description: Inhibition of multidrug resistance efflux pump in Mycobacterium avium 104 assessed as potentiation of clarithromycin -induced antibacterial activity by measuring clarithromycin MIC at 1/4 MIC incubated for 3 days by MTT assay
# Mycobacterium avium [11] = details: 104 mc'2 4
# Mycobacterium avium [12] = details: isolate MAV2; remark: listed apart in the source
# Description: Inhibition of multidrug resistance efflux pump in Mycobacterium avium isolate MAV2 assessed as potentiation of clarithromycin -induced antibacterial activity by measuring clarithromycin MIC at 1/4 MIC incubated for 3 days by MTT assay (Rvb = >1024 ug/ml)
# Mycobacterium avium [13] = details: isolate MAV1
# Mycobacterium avium [14] = details: 104 mc'2 4; remark: listed apart in the source
# Mycobacterium avium [15] = details: isolate MAV4; remark: listed apart in the source
# Mycobacterium avium [16] = details: isolate MAV3; remark: listed apart in the source
# Mycobacterium avium [17] = details: 104 mc'2 3; remark: listed apart in the source
# [18] = tested on: Mycobacterium avium subsp. avium ATCC 25291; remark: listed apart in the source
# Description: Inhibition of multidrug resistance efflux pump in Mycobacterium avium ATCC 25291 assessed as potentiation of clarithromycin -induced antibacterial activity by measuring clarithromycin MIC at 1/2 MIC incubated for 3 days by MTT assay
# [19] = tested on: Mycobacterium avium subsp. avium ATCC 25291; remark: listed apart in the source
# Description: Inhibition of multidrug resistance efflux pump in Mycobacterium avium ATCC 25291 assessed as potentiation of clarithromycin -induced antibacterial activity by measuring clarithromycin MIC at 1/4 MIC incubated for 3 days by MTT assay
# Mycobacterium avium [20] = details: isolate MAV1; remark: listed apart in the source
# Description: Inhibition of multidrug resistance efflux pump in Mycobacterium avium isolate MAV1 assessed as potentiation of ofloxacin-induced antibacterial activity by measuring ofloxacin MIC at 1/2 MIC incubated for 3 days by MTT assay (Rvb = 4 ug/ml)
# Mycobacterium avium [21] = details: 104; remark: listed apart in the source
# Description: Inhibition of multidrug resistance efflux pump in Mycobacterium avium 104 assessed as potentiation of clarithromycin -induced antibacterial activity by measuring clarithromycin MIC at 1/2 MIC incubated for 3 days by MTT assay
# Mycobacterium avium [22] = details: 104 mc'2 3; remark: listed apart in the source
# Mycobacterium avium [23] = details: 104; remark: listed apart in the source
# [24] = tested on: Mycobacterium avium subsp. avium ATCC 25291; remark: listed apart in the source
# Mycobacterium avium [25] = details: 104 mc'2 3; remark: listed apart in the source
# [26] = tested on: Mycobacterium avium subsp. avium ATCC 25291; remark: listed apart in the source
# Description: Inhibition of multidrug resistance efflux pump in Mycobacterium avium ATCC 25291 assessed as potentiation of ethidium bromide-induced antibacterial activity by measuring ethidium bromide MIC at 1/4 MIC incubated for 3 days by MTT assay
# Mycobacterium avium [27] = details: in vivo, 72 h
# Description: Antimycobacterial activity against Mycobacterium avium 104 mc'2 4 assessed as reduction in bacterial viability incubated for 3 days by MTT assay
# Mycobacterium avium [28] = details: in vivo, 72 h; remark: listed apart in the source
# Description: Antimycobacterial activity against Mycobacterium avium 104 mc'2 3 assessed as reduction in bacterial viability incubated for 3 days by MTT assay
# [29] = tested on: Mycolicibacterium smegmatis; test: Antimycobacterial activity against Mycobacterium smegmatis str. MC2 155 assessed as reduction in bacterial viability incubated for 3 days by MTT assay; assay type: organism-based; details: 72 h
# Mycobacterium avium [30] = details: 104 mc'2 3; remark: listed apart in the source
# [31] = tested on: Mycobacterium avium subsp. avium ATCC 25291; remark: listed apart in the source
# Mycobacterium avium [32] = details: 104 mc'2 4; remark: listed apart in the source
# Mycobacterium avium [33] = details: 104; remark: listed apart in the source
# [34] = tested on: Mycobacterium avium subsp. avium ATCC 25291; remark: listed apart in the source
# Mycobacterium avium [35] = details: isolate MAV2; remark: listed apart in the source
# Mycobacterium avium [36] = details: 104 mc'2 4; remark: listed apart in the source
# Mycobacterium avium [37] = details: 104; remark: listed apart in the source
# Mycobacterium avium [38] = details: 104 mc'2 4; remark: listed apart in the source
# Mycobacterium avium [39] = details: isolate MAV3; remark: listed apart in the source
# Mycobacterium avium [40] = details: isolate MAV2; remark: listed apart in the source
# Mycobacterium avium [41] = details: isolate MAV1; remark: listed apart in the source
# Mycobacterium avium [42] = test: Antimycobacterial activity against Mycobacterium avium ATCC 25291 assessed as reduction in bacterial viability incubated for 3 days by MTT assay; assay type: organism-based; details: mycobacterium avium subsp. avium atcc 25291, 72 h
# Mycobacterium avium [43] = details: 104; remark: listed apart in the source
# Mycobacterium avium [44] = details: 104; remark: listed apart in the source
# Mycobacterium avium [45] = details: isolate MAV1; remark: listed apart in the source
# Description: Inhibition of multidrug resistance efflux pump in Mycobacterium avium isolate MAV1 assessed as potentiation of ofloxacin-induced antibacterial activity by measuring ofloxacin MIC at 1/4 MIC incubated for 3 days by MTT assay (Rvb = 4 ug/ml)
# [46] = tested on: Mycobacterium avium subsp. avium ATCC 25291; remark: listed apart in the source
# Mycobacterium avium [47] = details: isolate MAV1; remark: listed apart in the source
# Mycobacterium avium [48] = details: 104 mc'2 4; remark: listed apart in the source
# Mycobacterium avium [49] = details: isolate MAV1; remark: listed apart in the source
# Mycobacterium avium [50] = details: isolate MAV1; remark: listed apart in the source
# Mycobacterium avium [51] = details: isolate MAV4; remark: listed apart in the source
# Mycobacterium avium [52] = details: isolate MAV3; remark: listed apart in the source
# Mycobacterium avium [53] = details: isolate MAV4; remark: listed apart in the source
# Description: Inhibition of multidrug resistance efflux pump in Mycobacterium avium isolate MAV4 assessed as potentiation of ethidium bromide-induced antibacterial activity by measuring ethidium bromide MIC at 1/4 MIC incubated for 3 days by MTT assay
# Mycobacterium avium [54] = details: isolate MAV2; remark: listed apart in the source
# Mycobacterium avium [55] = details: isolate MAV3; remark: listed apart in the source
# Mycobacterium avium [56] = details: isolate MAV1; remark: listed apart in the source
# Mycobacterium avium [57] = details: isolate MAV2; remark: listed apart in the source
# Description: Inhibition of multidrug resistance efflux pump in Mycobacterium avium isolate MAV2 assessed as potentiation of ofloxacin-induced antibacterial activity by measuring ofloxacin MIC at 1/4 MIC incubated for 3 days by MTT assay
# Mycobacterium avium [58] = details: 104 mc'2 4; remark: listed apart in the source
# Mycobacterium avium [59] = details: 104; remark: listed apart in the source
# Mycobacterium avium [60] = details: 104 mc'2 3; remark: listed apart in the source
# Mycobacterium avium [61] = details: isolate MAV3; remark: listed apart in the source
# Mycobacterium avium [62] = details: 104; remark: listed apart in the source
# Mycobacterium avium [63] = details: 104 mc'2 4; remark: listed apart in the source
# Mycobacterium avium [64] = test: Antimycobacterial activity against Mycobacterium avium isolate MAV1 assessed as reduction in bacterial viability incubated for 3 days by MTT assay; assay type: organism-based; details: in vitro, 72 h
structure (smiles),measurement,setting,value
CN(C)CCCN1c2ccccc2Sc2ccc(Cl)cc21 [CHLORPROMAZINE],MIC,Mycobacterium avium [1],1 µg/mL
same,MIC,Mycobacterium avium [2],128 µg/mL
same,MIC,[3],8 µg/mL
same,MIC,Mycobacterium avium [4],64 µg/mL
same,MIC,Mycobacterium avium [5],128 µg/mL
same,MIC,Mycobacterium avium [6],0.5 µg/mL
same,MIC,Mycobacterium avium [7],0.5 µg/mL
same,MIC,Mycobacterium avium [8],> 512 µg/mL
same,MIC,Mycobacterium avium [9],30 µg/mL
same,MIC,Mycobacterium avium [10],4 µg/mL
same,MIC,Mycobacterium avium [11],0.25 µg/mL
same,MIC,Mycobacterium avium [12],> 512 µg/mL
same,MIC,Mycobacterium avium [13],1.56 µg/mL
same,MIC,Mycobacterium avium [14],1 µg/mL
same,MIC,Mycobacterium avium [15],2 µg/mL
same,MIC,Mycobacterium avium [16],12.5 µg/mL
same,MIC,Mycobacterium avium [17],< 4 µg/mL
same,MIC,[18],< 0.125 µg/mL
same,MIC,[19],1 µg/mL
same,MIC,Mycobacterium avium [20],< 0.0625 µg/mL
same,MIC,Mycobacterium avium [21],1 µg/mL
same,MIC,Mycobacterium avium [22],0.78 µg/mL
same,MIC,Mycobacterium avium [23],1 µg/mL
same,MIC,[24],< 1 µg/mL
same,MIC,Mycobacterium avium [25],4 µg/mL
same,MIC,[26],12.5 µg/mL
same,MIC,Mycobacterium avium [27],30 µg/mL
same,MIC,Mycobacterium avium [28],30 µg/mL
same,MIC,[29],60 µg/mL
same,MIC,Mycobacterium avium [30],1 µg/mL
same,MIC,[31],< 0.5 µg/mL
same,MIC,Mycobacterium avium [32],512 µg/mL
same,MIC,Mycobacterium avium [33],< 4 µg/mL
same,MIC,[34],< 0.25 µg/mL
same,MIC,Mycobacterium avium [35],4 µg/mL
same,MIC,Mycobacterium avium [36],4 µg/mL
same,MIC,Mycobacterium avium [37],8 µg/mL
same,MIC,Mycobacterium avium [38],8 µg/mL
same,MIC,Mycobacterium avium [39],128 µg/mL
same,MIC,Mycobacterium avium [40],2 µg/mL
same,MIC,Mycobacterium avium [41],< 4 µg/mL
same,MIC,Mycobacterium avium [42],30 µg/mL
same,MIC,Mycobacterium avium [43],6.25 µg/mL
same,MIC,Mycobacterium avium [44],64 µg/mL
same,MIC,Mycobacterium avium [45],1 µg/mL
same,MIC,[46],< 0.5 µg/mL
same,MIC,Mycobacterium avium [47],< 0.195 µg/mL
same,MIC,Mycobacterium avium [48],> 512 µg/mL
same,MIC,Mycobacterium avium [49],< 4 µg/mL
same,MIC,Mycobacterium avium [50],< 4 µg/mL
same,MIC,Mycobacterium avium [51],16 µg/mL
same,MIC,Mycobacterium avium [52],16 µg/mL
same,MIC,Mycobacterium avium [53],12.5 µg/mL
same,MIC,Mycobacterium avium [54],> 512 µg/mL
same,MIC,Mycobacterium avium [55],3.12 µg/mL
same,MIC,Mycobacterium avium [56],32 µg/mL
same,MIC,Mycobacterium avium [57],2 µg/mL
same,MIC,Mycobacterium avium [58],6.25 µg/mL
same,MIC,Mycobacterium avium [59],3.12 µg/mL
same,MIC,Mycobacterium avium [60],6.25 µg/mL
same,MIC,Mycobacterium avium [61],8 µg/mL
same,MIC,Mycobacterium avium [62],0.5 µg/mL
same,MIC,Mycobacterium avium [63],128 µg/mL
same,MIC,Mycobacterium avium [64],30 µg/mL
CSc1ccc2c(c1)N(CCC1CCCCN1C)c1ccccc1S2 (stereo not drawn) [THIORIDAZINE],MIC,Mycobacterium avium [1],< 0.125 µg/mL
same,MIC,Mycobacterium avium [2],256 µg/mL
same,MIC,[3],16 µg/mL
same,MIC,Mycobacterium avium [4],256 µg/mL
same,MIC,Mycobacterium avium [5],128 µg/mL
same,MIC,Mycobacterium avium [6],2 µg/mL
same,MIC,Mycobacterium avium [7],1 µg/mL
same,MIC,Mycobacterium avium [8],> 512 µg/mL
same,MIC,Mycobacterium avium [9],30 µg/mL
same,MIC,Mycobacterium avium [10],4 µg/mL
same,MIC,Mycobacterium avium [11],0.5 µg/mL
same,MIC,Mycobacterium avium [12],> 512 µg/mL
same,MIC,Mycobacterium avium [13],0.78 µg/mL
same,MIC,Mycobacterium avium [14],0.25 µg/mL
same,MIC,Mycobacterium avium [15],4 µg/mL
same,MIC,Mycobacterium avium [16],12.5 µg/mL
same,MIC,Mycobacterium avium [17],< 4 µg/mL
same,MIC,[18],1 µg/mL
same,MIC,[19],2 µg/mL
same,MIC,Mycobacterium avium [20],< 0.0625 µg/mL
same,MIC,Mycobacterium avium [21],2 µg/mL
same,MIC,Mycobacterium avium [22],1.56 µg/mL
same,MIC,Mycobacterium avium [23],4 µg/mL
same,MIC,[24],4 µg/mL
same,MIC,Mycobacterium avium [25],4 µg/mL
same,MIC,[26],25 µg/mL
same,MIC,Mycobacterium avium [27],30 µg/mL
same,MIC,Mycobacterium avium [28],30 µg/mL
same,MIC,[29],30 µg/mL
same,MIC,Mycobacterium avium [30],< 0.125 µg/mL
same,MIC,[31],32 µg/mL
same,MIC,Mycobacterium avium [32],256 µg/mL
same,MIC,Mycobacterium avium [33],32 µg/mL
same,MIC,[34],8 µg/mL
same,MIC,Mycobacterium avium [35],0.25 µg/mL
same,MIC,Mycobacterium avium [36],4 µg/mL
same,MIC,Mycobacterium avium [37],64 µg/mL
same,MIC,Mycobacterium avium [38],8 µg/mL
same,MIC,Mycobacterium avium [39],128 µg/mL
same,MIC,Mycobacterium avium [40],0.25 µg/mL
same,MIC,Mycobacterium avium [41],< 4 µg/mL
same,MIC,Mycobacterium avium [42],30 µg/mL
same,MIC,Mycobacterium avium [43],12.5 µg/mL
same,MIC,Mycobacterium avium [44],128 µg/mL
same,MIC,Mycobacterium avium [45],1 µg/mL
same,MIC,[46],4 µg/mL
same,MIC,Mycobacterium avium [47],< 0.195 µg/mL
same,MIC,Mycobacterium avium [48],> 512 µg/mL
same,MIC,Mycobacterium avium [49],< 4 µg/mL
same,MIC,Mycobacterium avium [50],< 4 µg/mL
same,MIC,Mycobacterium avium [51],64 µg/mL
same,MIC,Mycobacterium avium [52],64 µg/mL
same,MIC,Mycobacterium avium [53],25 µg/mL
same,MIC,Mycobacterium avium [54],512 µg/mL
same,MIC,Mycobacterium avium [55],12.5 µg/mL
same,MIC,Mycobacterium avium [56],16 µg/mL
same,MIC,Mycobacterium avium [57],1 µg/mL
same,MIC,Mycobacterium avium [58],12.5 µg/mL
same,MIC,Mycobacterium avium [59],6.25 µg/mL
same,MIC,Mycobacterium avium [60],12.5 µg/mL
same,MIC,Mycobacterium avium [61],16 µg/mL
same,MIC,Mycobacterium avium [62],2 µg/mL
same,MIC,Mycobacterium avium [63],128 µg/mL
same,MIC,Mycobacterium avium [64],30 µg/mL
